In PMC10555500, “Evaluation of the Antiproliferative Properties of CpRu Complexes Containing N-Methylated Triazaphosphaadamantane Derivatives” (Bioinorganic Chemistry and Applications, 2023):

Columns and labels:
[1] = Stability in DMSO-d6 and DMSO-d6/D2O monitored by 31P{1H} NMR; type: physicochemical
Description: The assessment of the biological properties of the complexes requires their dissolution in a cell culture medium which is mainly constituted by water. When the complex is not hydrosoluble enough, the used protocol contemplates preliminary dissolution in DMSO before the addition to the culture medium. Thus, it is important to determine the stability and behaviour of the complexes in both DMSO and water/DMSO mixtures to check whether different species have been formed when dissolved. Dissolutions in DMSO-d6 and DMSO-d6/D2O of the new complexes 8 and 11 were monitored by ^31P{^1H} NMR over time at room temperature and 37°C. The stability studies of the rest of the complexes (1‐7, 9, 10) were published previously. All experiments were performed by a similar procedure: the complex (0.01 g) was introduced into a 5 mm NMR tube and dissolved in 0.5 mL of degassed solvent (DMSO-d6 and a 1 : 1 mixture of DMSO-d6/D2O). The solution was left at room temperature and monitored by ^31P{^1H} NMR first every 15 minutes, and later in longer periods. Stability was also monitored at incubation cell-based assay temperature (37°C).
All compounds were studied for their stability in 100% DMSO-d6 and DMSO-d6/D2O mixture by using NMR spectroscopy in common aerobic conditions. All experiments were performed by a similar procedure: the complex (0.01 g) was introduced into a 5 mm NMR tube and dissolved in 0.5 mL of degassed solvent (DMSO-d6 and a 1:1 mixture of DMSO-d6/D2O). The solution was left at room temperature and monitored by ^31P{^1H} NMR first every 15 minutes, and later in longer time periods. Stability was also monitored at incubation cell-based assays temperature (37 °C).

[2] = tested on: MCF-7 breast cancer cells; test: MTT cytotoxicity assay, MCF-7 cells; type: cell-based, human; conditions: 24 h incubation, average of at least three experiments (±SD)
Experimental: The MDA-MB-231 and MCF-7 human breast cancer cells were purchased from ATCC. The MDA-MB-231 and MCF-7 cells were grown in Dulbecco's modified Eagles' medium (DMEM high glucose) (Capricorn Scientific) at 37°C in 5% CO2 supplemented with 10% fetal bovine serum (Capricorn Scientific). HDF cells were purchased from Merck and were grown in the fibroblast growth medium. All cells were adherent in monolayers and, upon confluence, were washed with phosphate buffer saline (PBS) and harvested by digestion with trypsin-EDTA 0.05% (v/v). The cells were suspended and transferred into new, sterile, culture flasks for maintenance or seeded in sterile test microplates for different assays. All cells were manipulated under aseptic conditions in a flow chamber.
The cells were adherent in monolayers and, upon confluence, were harvested by digestion with trypsin. The cytotoxicity of the complexes against the tumour cells was assessed using the colorimetric assay MTT […], which evaluates the metabolic activity of viable cells. This assay measures the conversion of yellow tetrazolium into purple formazan by an active mitochondrial dehydrogenase in living cells. For this purpose, the cells (10–20 × 10^3 in 200 μL of the medium) were seeded into 96-well plates and incubated in a 5% CO2 incubator at 37°C. The cells were settled for 24 h followed by the addition of a dilution series of the complexes in a medium (200 μL). The complexes were first solubilized in 100% DMSO, given a 10 mM stock solution, and then in a medium within the concentration range of 0.1–100 µM. […] The cellular viability was evaluated by measuring the absorbance at 570 nm by using a microplate spectrophotometer. […]
The cells were adherent in monolayers and, upon confluency, were harvested by digestion with trypsin. The cytotoxicity of the complexes against the tumour cells was assessed using the colorimetric assay MTT […], which evaluate the metabolic activity of viable cells. […]

SMILES: CN1CN2CN(C)C[P]([Ru+2]([P](c3ccccc3)(c3ccccc3)c3ccccc3)[P](c3ccccc3)(c3ccccc3)c3ccccc3)(C1)C2.O=S(=O)([O-])C(F)(F)F.[Cl][Pd][Cl].c1cc[cH-]c1 [Compound 11, [RuCp(PPh3)2-µ-dmoPTA-1κP-2κ^2N,N′-PdCl2](CF3SO3)]
- Fraction converted to complex 8 (solvolysis) in DMSO ([1]; DMSO-d6, visible after 4 h, constant up to 48 h): < 7%
- Stability in DMSO-d6 ([1]; room temperature and 37°C, 48 h, 31P{1H} NMR): very stable
- IC50 [2]: 730 ± 110 nM
